Reference: publication PMC10233622, “Structural and functional investigation of a fungal member of carbohydrate esterase family 15 with potential specificity for rare xylans” (Acta Crystallographica. Section D, Structural Biology, 2023)

Target: T1, LfCE15C (Lentithecium fluviatile, UniProt A0A6G1IIU9)
T1 construct: gene K458DRAFT_349146; native signal peptide removed; secreted from Pichia pastoris SMD1168H; N-glycosylated at Asn241
Test: nanoDSF thermal shift (Tycho NT.[…] nm)
Details: 20 mM ligand; 0.1 M sodium phosphate pH 6.5; indirect indication of binding

T1 sequence (A0A6G1IIU9 entry or part of it): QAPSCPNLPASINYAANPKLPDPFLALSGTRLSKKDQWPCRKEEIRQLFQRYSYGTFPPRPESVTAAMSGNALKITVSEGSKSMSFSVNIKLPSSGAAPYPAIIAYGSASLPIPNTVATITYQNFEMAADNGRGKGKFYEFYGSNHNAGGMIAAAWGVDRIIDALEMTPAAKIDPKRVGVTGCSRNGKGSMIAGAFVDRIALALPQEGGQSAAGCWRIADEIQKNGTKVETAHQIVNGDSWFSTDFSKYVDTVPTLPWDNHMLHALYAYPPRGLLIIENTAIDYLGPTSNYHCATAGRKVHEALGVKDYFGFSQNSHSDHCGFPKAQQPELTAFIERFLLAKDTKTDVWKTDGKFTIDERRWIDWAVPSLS

## O=C(OCc1ccccc1)[C@H]1OC(O)[C@H](O)[C@@H](O)[C@@H]1O (stereo partly shown) [BnzGlcA, benzyl glucuronate]
  Ti shift: A decrease in T i was observed with BnzGlcA
